Patent US20260234112A1, “COMPOUNDS, COMPOSITIONS, AND METHODS OF USE THEREOF” (Type6 Therapeutics, Inc., priority 2023, published 2026)

What follows are molecules tested against T1, Cdk2(2-298) (Homo sapiens, UniProt P24941) (assay: Surface Plasmon Resonance (SPR) compound interaction, Biacore 8K). Conditions: single-cycle kinetics (SCK, "S"), dissociation 1800 sec, read-out: Activity rating (KD).
T1 construct: Biotinylated N-terminal avi-tagged Cdk2(2-298) or Cdk1(1-297) was immobilized
Format: binding
Experimental: Compound interaction was profiled using a Biacore 8K instrument (Cytiva). Biotinylated N-terminal avi-tagged Cdk2(2-298) or Cdk1(1-297) was immobilized on a series S sensor Chip SA at a capture level between 2500 RU and 3000 RU (Cdk2) or 7000 RU (Cdk1) in buffer (25 mM HEPES, 150 mM NaCl, 0.05% Tween20, pH 7.5). A compound dilution plate (8 concentrations, 3-fold dilution) in DMSO was prepared (100× assay concentration). From this plate, compound DMSO stock solution was transferred into buffer, yielding a final DMSO concentration of 1% in assay. The remaining buffer was supplemented with 1% DMSO. Compounds were injected in a series of increasing concentrations in multi-cycle kinetics (MCK, “M”) or single-cycle kinetics (SCK, “S”) mode at a flow rate of 30 μl/min for 120 sec and dissociation was profiled for 180 sec (MCK) or 1800 sec (SCK). Data were analysed using Biacore Insight Evaluation Software (Cytiva).

| SMILES | Kd [nM] |
| --- | --- |
| O=S(=O)(Nc1ccc(Oc2ccncc2-c2ccnc(N[C@H]3CCCNC3)n2)c(F)c1)c1ccccc1Cl [Compound 34, N-[3-Fluoro-4-[[3-[2-[[(3S)-3-piperidyl]amino]pyrimidin-4-yl]-4-pyridyl]oxy]phenyl] 2-chlorobenzenesulfonamide] | ≤ 10 |
| N[C@H]1CC[C@H](Nc2nccc(-c3cnccc3Oc3ccc(NS(=O)(=O)C4CC4)cc3F)n2)CC1 [Compound 36, N-[4-[[3-[2-[(1r,4r)(4-Aminocyclohexyl)amino]pyrimidin-4-yl]-4-pyridyl]oxy]-3-fluorophenyl] cyclopropanesulfonamide] | > 5000 |
| NC(=O)c1ccc(S(=O)(=O)Nc2ccc(Oc3ccncc3-c3ccnc(N[C@H]4CC[C@H](N)CC4)n3)c(F)c2)cc1 [Compound 38, 4-(N-(4-((3-(2-(((1r,4r)-4-aminocyclohexyl)amino)pyrimidin-4-yl)pyridin-4-yl)oxy)-3-fluorophenyl)sulfamoyl) benzamide] | 100 to 1000 |
| N[C@H]1CC[C@H](Nc2nccc(-c3cnccc3Oc3ccc(NS(=O)(=O)C4CCC4)cc3F)n2)CC1 [Compound 39, N-[4-[[3-[2-[(1r,4r)(4-Aminocyclohexyl)amino]pyrimidin-4-yl]-4-pyridyl]oxy]-3-fluorophenyl]cyclobutanesulfonamide] | 1000 to 5000 |
| N[C@H]1CC[C@H](Nc2nccc(-c3cnccc3Oc3ccc(NS(=O)(=O)c4ccc5c(c4)OCO5)cc3F)n2)CC1 [Compound 41, N-[4-[[3-[2-[(1r,4r)(4-aminocyclohexyl)amino]pyrimidin-4-yl]-4-pyridyl]oxy]-3-fluorophenyl]1,3-benzodioxol-5-ylsulfonamide] | 100 to 1000 |
| COc1ccc(S(=O)(=O)Nc2ccc(Oc3ccncc3-c3ccnc(N[C@H]4CC[C@H](N)CC4)n3)c(F)c2)c(C)c1C [Compound 43, N-[4-[[3-[2-[(1r,4r)(4-aminocyclohexyl)amino]pyrimidin-4-yl]-4-pyridyl]oxy]-3-fluorophenyl] 4-methoxy-2,3-dimethyl-benzenesulfonamide] | 11 to 100 |
| Cc1cc2cc(S(=O)(=O)Nc3ccc(Oc4ccncc4-c4ccnc(N[C@H]5CC[C@H](N)CC5)n4)c(F)c3)ccc2[nH]1 [Compound 45, N-[4-[[3-[2-[(1r,4r)(4-aminocyclohexyl)amino]pyrimidin-4-yl]-4-pyridyl]oxy]-3-fluorophenyl] 2-methyl-1H-indole-5-sulfonamide] | > 5000 |
| N[C@H]1CC[C@H](Nc2nccc(-c3cnccc3Oc3ccc(NS(=O)(=O)C4CC4)c(Cl)c3)n2)CC1 [Compound 50, N-[4-[[3-[2-[(1r,4r)(4-Aminocyclohexyl)amino]pyrimidin-4-yl]-4-pyridyl]oxy]-2-chlorophenyl] cyclopropanesulfonamide] | > 5000 |
| N[C@H]1CC[C@H](Nc2nccc(-c3cnccc3Oc3ccc(NS(=O)(=O)Cc4ccccc4)c(Cl)c3)n2)CC1 [Compound 51, N-[4-[[3-[2-[(1r,4r)(4-Aminocyclohexyl)amino]pyrimidin-4-yl]-4-pyridyl]oxy]-2-chlorophenyl] phenylmethanesulfonamide] | 1000 to 5000 |
| Cc1cc(C)c(S(=O)(=O)Nc2ccc(Oc3ccncc3-c3ccnc(N[C@H]4CC[C@H](N)CC4)n3)c(F)c2)c(C)c1 [Compound 55, N-[4-[[3-[2-[(1r,4r)(4-Aminocyclohexyl)amino]pyrimidin-4-yl]-4-pyridyl]oxy]-3-fluorophenyl] 2,4,6-trimethylbenzenesulfonamide] | 100 to 1000 |
| N[C@H]1CC[C@H](Nc2nccc(-c3cnccc3Oc3ccc(NS(=O)(=O)c4cccc5nccnc45)cc3F)n2)CC1 [Compound 56, N-[4-[[3-[2-[(1r,4r)(4-Aminocyclohexyl)amino]pyrimidin-4-yl]-4-pyridyl]oxy]-3-fluorophenyl] quinoxalin-5-ylsulfonamide] | 100 to 1000 |
| N[C@H]1CC[C@H](Nc2nccc(-c3cnccc3Oc3ccc(NS(=O)(=O)c4cccc5c4CCCC5)cc3F)n2)CC1 [Compound 57] | 100 to 1000 |
| O=S(=O)(Nc1ccc(Oc2ccncc2-c2ccnc(N[C@H]3CCCNC3)n2)c(F)c1)c1ccccc1 [Compound 59, N-[3-Fluoro-4-[[3-[2-[[(3S)-3-piperidyl]amino]pyrimidin-4-yl]-4-pyridyl]oxy]phenyl] benzenesulfonamide] | 11 to 100 |

Results, then the molecule that gave them:

| Kd [nM] | SMILES |
| --- | --- |
| ≤ 10 | C=Cc1ccccc1S(=O)(=O)Nc1ccc(Oc2ccncc2-c2ccnc(N[C@H]3CC[C@H](N)CC3)n2)c(F)c1 [Compound 33, N-[4-[[3-[2-(1r,4r)[(4-Aminocyclohexyl)amino]pyrimidin-4-yl]-4-pyridyl]oxy]-3-fluoro-phenyl]-2-ethenylbenzenesulfonamide] |
| 11 to 100 | Cc1ccc(C#N)cc1S(=O)(=O)Nc1ccc(Oc2ccncc2-c2ccnc(N[C@H]3CC[C@H](N)CC3)n2)c(F)c1 [Compound 35, N-(4-((3-(2-(((1r,4r)-4-aminocyclohexyl)amino)pyrimidin-4-yl)pyridin-4-yl)oxy)-3-fluorophenyl) 5-cyano-2-methylbenzenesulfonamide] |
| 11 to 100 | N[C@H]1CC[C@H](Nc2nccc(-c3cnccc3Oc3ccc(NS(=O)(=O)c4ccccc4)cc3F)n2)CC1 [Compound 37, N-[4-[[3-[2-[(1r,4r)(4-Aminocyclohexyl)amino]pyrimidin-4-yl]-4-pyridyl]oxy]-3-fluorophenyl] benzenesulfonamide] |
| 1000 to 5000 | CS(=O)(=O)Nc1ccc(Oc2ccncc2-c2ccnc(N[C@H]3CC[C@H](N)CC3)n2)c(F)c1 [Compound 40, N-(4-((3-(2-(((1r,4r)-4-aminocyclohexyl)amino)pyrimidin-4-yl)pyridin-4-yl)oxy)-3-fluorophenyl) methanesulfonamide] |
| 100 to 1000 | N[C@H]1CC[C@H](Nc2nccc(-c3cnccc3Oc3ccc(NS(=O)(=O)c4cccc5cccnc45)cc3F)n2)CC1 [Compound 42, N-[4-[[3-[2-[(1r,4r)(4-aminocyclohexyl)amino]pyrimidin-4-yl]-4-pyridyl]oxy]-3-fluorophenyl]quinoline-8-sulfonamide] |
| 1000 to 5000 | N[C@H]1CC[C@H](Nc2nccc(-c3cnccc3Oc3ccc(NS(=O)(=O)Cc4ccccc4)cc3F)n2)CC1 [Compound 44, N-[4-[[3-[2-[(1r,4r)(4-Aminocyclohexyl)amino]pyrimidin-4-yl]-4-pyridyl]oxy]-3-fluorophenyl] phenylmethanesulfonamide] |
| 100 to 1000 | N[C@H]1CC[C@H](Nc2nccc(-c3cnccc3Oc3ccc(NS(=O)(=O)c4ccccc4)c(F)c3)n2)CC1 [Compound 46, N-[4-[[3-[2-[(1r,4r)(4-Aminocyclohexyl)amino]pyrimidin-4-yl]-4-pyridyl]oxy]-2-fluorophenyl] benzenesulfonamide] |
| ≤ 10 | N[C@H]1CC[C@H](Nc2nccc(-c3cnccc3Oc3cc(Cl)c(NS(=O)(=O)c4ccccc4Cl)cc3F)n2)CC1 [Compound 47, N-[4-[[3-[2-[(1r,4r)(4-Aminocyclohexyl)amino]pyrimidin-4-yl]-4-pyridyl]oxy]-2-chloro-5-fluorophenyl] 2-chlorobenzenesulfonamide] |
| 11 to 100 | N[C@H]1CC[C@H](Nc2nccc(-c3cnccc3Oc3cc(Cl)c(NS(=O)(=O)c4ccccc4)cc3F)n2)CC1 [Compound 48, N-[4-[[3-[2-[(1r,4r)(4-Aminocyclohexyl)amino]pyrimidin-4-yl]-4-pyridyl]oxy]-2-chloro-5-fluorophenyl] benzenesulfonamide] |
| 100 to 1000 | N[C@H]1CC[C@H](Nc2nccc(-c3cnccc3Oc3cc(Cl)c(NS(=O)(=O)Cc4ccccc4)cc3F)n2)CC1 [Compound 49, N-[4-[[3-[2-[(1r,4r)(4-Aminocyclohexyl)amino]pyrimidin-4-yl]-4-pyridyl]oxy]-2-chloro-5-fluorophenyl] phenylmethanesulfonamide] |
| 11 to 100 | N[C@H]1CC[C@H](Nc2nccc(-c3cnccc3Oc3ccc(NS(=O)(=O)c4ccccc4)c(Cl)c3F)n2)CC1 [Compound 52, N-[4-[[3-[2-[(1r,4r)(4-Aminocyclohexyl)amino]pyrimidin-4-yl]-4-pyridyl]oxy]-2-chloro-3-fluorophenyl] benzenesulfonamide] |
| ≤ 10 | N[C@H]1CC[C@H](Nc2nccc(-c3cnccc3Oc3ccc(NS(=O)(=O)c4ccccc4Br)cc3F)n2)CC1 [Compound 53, N-[4-[[3-[2-[(1r,4r)(4-Aminocyclohexyl)amino]pyrimidin-4-yl]-4-pyridyl]oxy]-3-fluorophenyl] 2-bromobenzenesulfonamide] |
| 11 to 100 | Cc1ccccc1S(=O)(=O)Nc1ccc(Oc2ccncc2-c2ccnc(N[C@H]3CC[C@H](N)CC3)n2)c(F)c1 [Compound 54, N-[4-[[3-[2-[(1r,4r)(4-Aminocyclohexyl)amino]pyrimidin-4-yl]-4-pyridyl]oxy]-3-fluorophenyl] 2-methylbenzenesulfonamide] |
| 11 to 100 | N[C@H]1CC[C@H](Nc2nccc(-c3cnccc3Oc3ccc(NS(=O)(=O)c4cc(Cl)c(Br)cc4F)cc3F)n2)CC1 [Compound 58, N-[4-[[3-[2-[(1r,4r)(4-Aminocyclohexyl)amino]pyrimidin-4-yl]-4-pyridyl]oxy]-3-fluorophenyl] 4-bromo-5-chloro-2-fluorobenzenesulfonamide] |
| 1000 to 5000 | N[C@H]1CC[C@H](Nc2nccc(-c3cnccc3Oc3cc(Cl)c(NS(=O)(=O)C4CC4)cc3F)n2)CC1 [Compound 60, N-[4-[[3-[2-[(1r,4r)(4-Aminocyclohexyl)amino]pyrimidin-4-yl]-4-pyridyl]oxy]-2-chloro-5-fluorophenyl] cyclopropylsulfonamide] |
